Reference: patent publication US20260108547A1, “LEVERAGING L-FUCOSE-MEDIATED SIGNALING TO INDUCE MONOCYTE-DERIVED DENDRITIC CELL POLARIZATION” (H. LEE MOFFITT CANCER CENTER AND RESEARCH INSTITUTE, INC., priority 2022, published 2026)

What was measured:
SW1 tumors [1] = test: Flow cytometric profiling of tumors and lymph nodes, SW1 tumors in C3H/HeN mice fed ± L-fucose and treated ± FTY720 (Table 1); format: in vivo, mouse
Experimental: Tumors of SW1 or SM1 melanoma cells from […] or C57BL/6 mice, respectively) were digested using 1× tumor digest buffer (0.5 mg/mL Collagenase I, 0.5 mg/mL Collagenase IV, 0.25 mg/mL Hyalyronidase V, 0.1 mg/mL DNAse I in HBSS (Millipore Sigma (St. Louis, MO)). Tumors were homogenized using the Miltenyi MACs dissociator. Red blood cells were lysed using ACK lysis buffer (Life Technologies, (Grand Island, NY)). Tumor homogenate cells were counted using a standard hemocytometer.
Total TILs were gated first to single cells (based on forward scatter height vs width, followed by side scatter height vs. width). Live cells were gated from the Zombie negative population from the population above. TILs were gated based on splenocyte size from a control spleen. Individual immune subpopulations were sub-gated from the total TIL population using the following staining criteria: CD3^+ for CD3^+ T cells; CD3^+/CD4^+/CD8^− for CD4^+T cells; CD3^+/CD4^−/CD8^+ for CD8^+ T cells, CD11c^+/CD11b^+ for DCs; either NK1.1 (for C57/BL6 mice) or DX5 (for C3H/HeJ) for NK cells; CD11b^+/GR1^+ for MDSC-like cells; and F4/80^+ for macrophages. Single-cell suspensions from tumor and spleen tissue were stained with Live/Dead Zombie NIR (Biolegend, (San Diego, CA)) at 1:1,000 in PBS for 20 min. Cell suspensions were spun down and stained with the following with antibodies at 0.5 μg/ml per antibody: APC anti-mouse CD3, Pacific Blue anti-mouse CD4, BV785 anti-mouse CD8, PerCP anti-mouse CD25, FITC anti-mouse F4/80, PeCy7 anti-mouse CD11c, PE anti-mouse NK1.1 or PE anti-mouse DX5, and PerCP-Cy5.5 anti-mouse CD11b. After staining, the cells were washed and fixed (2% formaldehyde), followed by another wash and flow cytometric analysis. The compensation controls were prepared using 0.5 μg/mL of each antibody with UltraComp eBeads, (ThermoFisher Scientific (Waltham, MA)). All samples were subject to flow cytometric profiling using a LSR Flow Cytometer (BD Biosciences (San Jose, CA)) and analysis as indicated using FlowJo software (BD Biosciences (San Jose, CA)).
(§1) For all mouse models, 1×10^6 melanoma cells were injected subcutaneously in the right hind flanks of each mouse. […] This dosage is within ranges for dietary supplementation with L-fucose and other similar dietary sugars (e.g., D-mannose) in other rodent studies. When the tumors reached −2 cm^3, the animals were sacrificed, and the tumors either processed for flow cytometric profiling or for histological analysis as indicated.
(§2) Control vs. L-fucose±FTY720 models (FIG. 2): SW1 or SM1 mouse melanoma cells were injected into syngeneic C3H/HeN (or NSG) female or C57BL/6 male mice, respectively. Cells were injected as follows: parental SW1 cells for FIG. 1A; parental SM1 cells for FIG. 1E; SW1 cells stably expressing either empty vector (EV) or mouse fucose kinase (mFuk) for FIG. 1L; and parental SW1 cells for FIG. 1M. FTY720 was administered at 20 μg every 2 days starting on Day 12, just prior to the initiation of LF, until endpoint.

SW1 tumors [2] = test: Volumetric tumor growth, SW1 melanoma in C3H/HeN mice (incl. immunodepletion, FTY720, anti-PD1); format: in vivo, mouse; conditions: SW1 melanoma C3H mouse model treated with FTY720 (inhibition of lymph node egress)
Excerpt: All animals were housed at the Vincent A. Stabile Research building animal facility at H. Lee Moffitt Cancer Center & Research Institute, which is fully accredited by the Association for Assessment and Accreditation of Laboratory Animal Care International (AAALAC, #434), and are managed in accordance with the Guide for the Care and Use of Laboratory Animals (“The Guide”), the Animal Welfare Regulations Title 9 Code of Federal Regulations Subchapter A, “Animal Welfare”, Parts 1-3 (AWR), the Public Health Service Policy on Humane Care and Use of Laboratory Animals (PHS Policy), and by the USF Institutional Animal Care and Use Committee's Principles and Procedures of Animal Care and Use (IACUC Principles). The experiments and protocols detailed in this study received institutional approval by the Moffitt IACUC (RIS00001625). Four-to-six-week-old female C3H/HeN and male C57BL6 mice were purchased from Charles Rivers Laboratories for the indicated experiments. Four-to-six-week-old male NSG mice from the Lau laboratory breeding colony were used for the indicated experiments. Power calculations were used to determine mouse cohort sizes to detect significant changes in tumor sizes. In general, 10 mice per indicated cohort to accommodate for incidental loss of mice due to issues beyond our control (e.g., incidental tumor ulceration that required exclusion from the study). Mouse tumor volumes were measured using length, width and depth divided by 2. At each experimental endpoint, mice were humanely euthanized using CO2 inhalation in accordance to the American Veterinary Medical Association guidelines.
as §1
Control vs. mFuk±L-fucose models (FIG. 1 & FIG. 8): SW1 or SM1 mouse melanoma cells were injected into syngeneic C3H/HeN (or NSG) female or C57BL/6 male mice, respectively, as follows: parental SW1 cells for FIG. 1A; parental SM1 cells for FIG. 1E; SW1 cells stably expressing either empty vector (EV) or mouse fucose kinase (mFuk) for FIG. 1L; and parental SW1 cells for FIG. 1M.
as §2
Immunodepletion mouse models (FIG. 1 & FIG. 8): Three days prior to tumor engraftment, PBS (control) or ˜300 μg α-CD4 (20 mg/kg, for immunodepletion, GK1.5, Bioxcell (West Lebanon, NH)) or 0-CD8 (20 mg/kg, for immunodepletion, 2.43, Bioxcell (West Lebanon, NH)) was administered by intraperitoneal injection into the indicated cohorts of mice. Injections of immunodepletion antibody or PBS were continued every 3-4 days until endpoint. Syngeneic recipient C3H/HeN female or C57BL/6 male mice were injected with SW1 or SM1 cells, respectively. […]

HLA-DRB1 [3] = test: Immunofluorescent subcellular localization of HLA-DRB1 in WM793 cells; format: cell-based, human; conditions: compared with vehicle (DMSO)
Experimental: General fluorescent immunocytochemical staining protocol: Melanoma cells were grown on German glass coverslips (Electron Microscopy Services (Hatfield, PA)) and fixed in fixation buffer (4% formaldehyde, 2% sucrose in phosphate buffered saline (PBS) for 20 min at room temperature (RT). The coverslip-grown cells were subject to two 5-min standing washes in PBS prior to permeabilization in permeabilization buffer (0.4% Triton-X-100 and 0.4% IgG-free bovine serum albumin (BSA, Jackson ImmunoResearch Laboratories (Westgrove, PA) in PBS) for 20 min at RT. The coverslip-grown cells were next subject to 2 PBS washes and incubated with the indicated primary antibodies.

HLA-DRB1 [4] = test: qRT-PCR and immunoblot of HLA-DRB1 mRNA and protein levels in melanoma cells; format: cell-based, human; conditions: 250 μM
Experimental: Cells were lysed on ice in RIPA lysis buffer (25 mM Tris-HCl pH 7.6, 150 mM NaCl, 5 mM EDTA, 1% NP-40 or 1% Triton X-100, 1% sodium deoxycholate, 0.1% SDS in diH2O+protease and phosphatase inhibitors (ThermoFisher Scientific (Waltham, MA)), briefly sonicated, pelleted, and the resulting lysates were normalized by protein concentration using DC assay (BioRad Laboratories, (Hercules, CA)). The indicated samples were subjected to (12%) SDS-PAGE and immunoblot analysis using the indicated antibodies. Immunoblot imaging and analysis was performed using either an Odyssey FC scanner and ImageStudio (LiCor Biosciences, Lincoln, NE) or film.
RNA from cells subjected to the indicated treatments was extracted using Gene Elute Mammalian Total RNA Extraction System (Millipore Sigma (St. Louis, MO)). RNA was reversed transcribed to cDNA using High-Capacity cDNA Reverse Transcription Kit (ThermoFisher Scientific (Waltham, MA)). qRT-PCR analysis was performed using FastStart Universal SYBR Green Master Mix (Rox) (Roche Diagnostics, (Indianapolis, IN)) using a BioRad CFX96 Real-time system (BioRad Laboratories, (Hercules, CA)). The qRT-PCR cycles used were as follows: 95° C. for 10 min, 35 cycles of 95° C. for 15 seconds, 55° C. for 60 seconds,
and 72° C. for 30 seconds. Expression of the indicated genes was normalized to histone H3A expression. […]

HLA-DRB1 [5] = test: Flow cytometric assessment of cell surface fucosylation and HLA-DRB1 in melanoma cells; format: cell-based, human; conditions: 250 μM, 72 h; flow cytometry
Experimental: Indicated cells were treated for 72 h with DMSO, 250 μM fucosyltransferase inhibitor (FUTi) (Millipore Sigma (St. Louis, MO)), or 250 μM of L-fucose (Biosynth (Oak Terrace, IL)). After 72 h, cells were stained with 0.1 μM PKH26 (Millipore Sigma (St. Louis, MO)) prior to fixation in 4% formaldehyde solution. The cells were stained with anti-HLA-DRB1 and fluorescein AAL, or anti-human or anti-mouse PD-L1 overnight. The following day the cells were washed 3 times prior to adding AlexaFluor 594 donkey anti-rabbit. Cells were washed 3 times and then subject to flow cytometric analyses using a FACSCalibur (BD Biosciences (San Jose, CA)). Samples were analyzed using FlowJo analysis software (BD Biosciences (San Jose, CA)). Median values of DRB1 and AAL were normalized to PKH26 values and statistical analysis was performed using GraphPad Prism.

fucosylated HLA-DRB1 = test: Lectin-mediated proximity ligation assay (L-PLA) of fucosylated HLA-DRB1 in WM793 cells; format: cell-based, human; conditions: melanoma cells
Experimental: Coverslip-grown cells subjected to L-PLA were processed upfront as described in the fluorescent immunocytochemistry protocol detailed above, whereas FFPE tumor tissue sections were processed according to the fluorescent immunohistochemistry protocol detailed above. Both approaches used mouse-anti-HLA-DRB1 (applied at 0.2 μg/mL, ab215835, Abcam, Cambridge, UK), biotinylated AAL lectin (applied at 0.2 μg/mL, Vector Laboratories (Burlingame, CA)), on coverslips overnight in 4° C. The coverslip-grown cells were again washed twice with PBS followed and then incubated with phalloidin Alexafluor 488 (applied at 0.05 μg/mL, ThermoFisher Scientific (Waltham, MA) with goat anti-biotin (applied at 0.1 μg/mL, Vector Laboratories (Burlingame, CA)) for 2h in 4° C. Subsequent steps of the protocol were adapted from the DUOlink In Situ Green PLA kit's manufacturer's protocol (Millipore Sigma (St. Louis, MO)). PLA anti-goat MINUS and PLA anti-mouse PLUS probes were applied at 1:5 for 1 h at 37° C. The coverslips were washed twice with Wash Buffer A prior to ligation with 1:5 ligation buffer and 1:40 ligase in ddH2O for 30 min at 37° C. […] Microscopy images were acquired using a Keyence BZ-X710, and images were process and analyzed using FIJI (NIH).

SMILES | average # of CD4 stem central memory cells (SW1 tumors [1]; Day 28, tumors) [per 10^6 cells] | average # of CD8 stem central memory cells (SW1 tumors [1]; Day 28, tumors) [per 10^6 cells] | average # of CD8 effector memory cells (SW1 tumors [1]; Day 42, tumors) [per 10^6 cells] | average # of CD8 stem central memory cells (SW1 tumors [1]; Day 42, tumors) [per 10^6 cells] | intratumoral CD4+T central and effector memory subpopulations (SW1 tumors [1]; SW1 model ± FTY720) | L-fuc-triggered tumor suppression (SW1 tumors [2]) | subcellular localization of HLA-DRB1 (HLA-DRB1 [3]) | HLA-DRB1 mRNA and protein levels (HLA-DRB1 [4]) | cell surface HLA-DRB1 (HLA-DRB1 [5]) | cell surface fucosylation (HLA-DRB1 [5]) | cytoplasmic/membranous localization of endogenous fucosylated HLA-DRB1 (L-PLA) (fucosylated HLA-DRB1)
CCCCCCCCc1ccc(CCC(N)(CO)CO)cc1 [FTY720, reference compound] | 0.87 | 0.00 | 220.02 | 0.00 | abrogated | completely abrogated | – | – | – | – | –
CC(=O)OC1O[C@@H](C)[C@@H](OC(C)=O)[C@@H](OC(C)=O)[C@@H]1F (some centres unmarked) [FUTi, 2F-peracteyl-fucose, reference compound] | – | – | – | – | – | – | dimmer, more central, endoplasmic reticulum-co-localization of HLA-DRB1 | remained unchanged | decreased | decreased | lost
